Where a chain is given by its changes, count along the chain named.
Assays:
Assay in all cases: KINOMEscan kinase binding assay (Eurofins/DiscoveRx), % Ctrl
Settings in all cases: 1 μM
kinases [1] = biological target: T1, kinases (Homo sapiens, UniProt P00519, F317L)
T1 construct: purchased Eurofins/DiscoveRx; host or cells: E. coli BL21-derived host (T7 phage display) for most kinases; HEK-293 for the rest
Summary of the method: (§1)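 Competition binding, 1 h RT: phage-tagged or HEK-293-expressed DNA-tagged kinase + immobilized ligand + compound. Eluate kinase by qPCR. % Ctrl = (test − positive ctrl)/(negative ctrl − positive ctrl) × 100; lower means stronger binding.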

kinases [2] = biological target: T2, kinases (Homo sapiens, UniProt P07949, V804L)
T2 construct: purchased Eurofins/DiscoveRx; host or cells: E. coli BL21-derived host (T7 phage display) for most kinases; HEK-293 for the rest
T2 sequence (P07949 29-1114 V804L): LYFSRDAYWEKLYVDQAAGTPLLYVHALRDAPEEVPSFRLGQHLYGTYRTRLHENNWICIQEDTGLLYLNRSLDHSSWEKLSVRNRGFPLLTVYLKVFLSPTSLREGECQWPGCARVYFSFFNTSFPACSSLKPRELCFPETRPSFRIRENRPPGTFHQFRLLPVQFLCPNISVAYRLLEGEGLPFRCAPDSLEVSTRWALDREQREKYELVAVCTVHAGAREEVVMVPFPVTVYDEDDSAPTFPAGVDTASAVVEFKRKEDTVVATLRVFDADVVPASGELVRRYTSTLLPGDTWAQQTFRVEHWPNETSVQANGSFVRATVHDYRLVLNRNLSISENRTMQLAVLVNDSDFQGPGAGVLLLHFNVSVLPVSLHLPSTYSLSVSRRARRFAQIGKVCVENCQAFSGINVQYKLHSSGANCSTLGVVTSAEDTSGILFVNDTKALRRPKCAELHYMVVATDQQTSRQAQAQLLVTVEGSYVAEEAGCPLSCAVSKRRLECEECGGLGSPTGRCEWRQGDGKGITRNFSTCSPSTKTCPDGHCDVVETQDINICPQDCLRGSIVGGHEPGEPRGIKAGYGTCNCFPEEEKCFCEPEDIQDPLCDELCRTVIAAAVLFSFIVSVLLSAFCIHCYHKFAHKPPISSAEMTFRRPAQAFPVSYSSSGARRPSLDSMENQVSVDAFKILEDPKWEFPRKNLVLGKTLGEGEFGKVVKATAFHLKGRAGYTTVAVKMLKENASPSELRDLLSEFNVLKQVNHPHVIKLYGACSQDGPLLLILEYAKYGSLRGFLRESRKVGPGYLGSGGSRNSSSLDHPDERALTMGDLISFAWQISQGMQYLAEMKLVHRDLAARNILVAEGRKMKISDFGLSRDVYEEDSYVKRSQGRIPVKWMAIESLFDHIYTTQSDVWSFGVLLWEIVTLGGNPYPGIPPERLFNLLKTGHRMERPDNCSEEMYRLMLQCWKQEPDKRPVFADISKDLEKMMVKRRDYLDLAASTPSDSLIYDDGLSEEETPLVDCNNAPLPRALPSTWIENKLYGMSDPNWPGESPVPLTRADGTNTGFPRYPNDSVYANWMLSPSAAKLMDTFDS
Summary of the method: as §1

kinases [3] = biological target: T3, kinases (Homo sapiens, UniProt P17948)
T3 construct: purchased Eurofins/DiscoveRx; host or cells: E. coli BL21-derived host (T7 phage display) for most kinases; HEK-293 for the rest
T3 sequence (P17948 27-1338): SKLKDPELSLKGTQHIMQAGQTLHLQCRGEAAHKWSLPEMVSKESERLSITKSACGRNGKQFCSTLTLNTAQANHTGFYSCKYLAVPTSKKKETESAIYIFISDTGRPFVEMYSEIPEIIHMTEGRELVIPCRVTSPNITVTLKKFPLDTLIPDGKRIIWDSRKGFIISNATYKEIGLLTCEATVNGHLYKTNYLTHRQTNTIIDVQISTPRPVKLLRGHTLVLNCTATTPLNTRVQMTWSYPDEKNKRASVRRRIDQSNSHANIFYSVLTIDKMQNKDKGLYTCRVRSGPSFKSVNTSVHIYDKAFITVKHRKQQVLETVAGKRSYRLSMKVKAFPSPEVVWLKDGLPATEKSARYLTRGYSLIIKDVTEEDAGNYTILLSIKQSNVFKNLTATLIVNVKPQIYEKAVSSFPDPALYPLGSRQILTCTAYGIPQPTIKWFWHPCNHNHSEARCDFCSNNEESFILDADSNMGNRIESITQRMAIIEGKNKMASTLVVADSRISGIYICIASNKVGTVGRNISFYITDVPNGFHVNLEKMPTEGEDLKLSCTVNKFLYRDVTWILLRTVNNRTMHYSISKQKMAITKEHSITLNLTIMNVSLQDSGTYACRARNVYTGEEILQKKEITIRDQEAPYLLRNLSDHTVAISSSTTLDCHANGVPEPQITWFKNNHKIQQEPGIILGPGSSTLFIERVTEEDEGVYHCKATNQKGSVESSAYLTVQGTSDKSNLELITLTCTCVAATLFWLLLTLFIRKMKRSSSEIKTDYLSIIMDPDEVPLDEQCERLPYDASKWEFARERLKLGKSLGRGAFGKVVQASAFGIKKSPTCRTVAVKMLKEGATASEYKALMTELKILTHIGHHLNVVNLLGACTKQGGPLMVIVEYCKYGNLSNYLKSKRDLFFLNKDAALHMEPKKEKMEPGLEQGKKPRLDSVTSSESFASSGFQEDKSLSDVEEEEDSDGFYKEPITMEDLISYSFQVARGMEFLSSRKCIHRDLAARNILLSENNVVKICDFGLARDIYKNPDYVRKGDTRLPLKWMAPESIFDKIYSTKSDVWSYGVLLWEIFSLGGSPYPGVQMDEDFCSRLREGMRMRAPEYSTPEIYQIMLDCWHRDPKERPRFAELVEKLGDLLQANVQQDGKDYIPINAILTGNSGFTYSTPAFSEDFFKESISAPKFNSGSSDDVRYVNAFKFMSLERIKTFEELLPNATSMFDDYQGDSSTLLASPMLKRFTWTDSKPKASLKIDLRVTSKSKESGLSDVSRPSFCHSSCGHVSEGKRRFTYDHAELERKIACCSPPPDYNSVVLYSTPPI
Summary of the method: as §1

kinases [4] = biological target: T4, kinases (Homo sapiens, UniProt P36888, R834Q)
T4 construct: purchased Eurofins/DiscoveRx; host or cells: E. coli BL21-derived host (T7 phage display) for most kinases; HEK-293 for the rest
T4 sequence (P36888 27-993 R834Q): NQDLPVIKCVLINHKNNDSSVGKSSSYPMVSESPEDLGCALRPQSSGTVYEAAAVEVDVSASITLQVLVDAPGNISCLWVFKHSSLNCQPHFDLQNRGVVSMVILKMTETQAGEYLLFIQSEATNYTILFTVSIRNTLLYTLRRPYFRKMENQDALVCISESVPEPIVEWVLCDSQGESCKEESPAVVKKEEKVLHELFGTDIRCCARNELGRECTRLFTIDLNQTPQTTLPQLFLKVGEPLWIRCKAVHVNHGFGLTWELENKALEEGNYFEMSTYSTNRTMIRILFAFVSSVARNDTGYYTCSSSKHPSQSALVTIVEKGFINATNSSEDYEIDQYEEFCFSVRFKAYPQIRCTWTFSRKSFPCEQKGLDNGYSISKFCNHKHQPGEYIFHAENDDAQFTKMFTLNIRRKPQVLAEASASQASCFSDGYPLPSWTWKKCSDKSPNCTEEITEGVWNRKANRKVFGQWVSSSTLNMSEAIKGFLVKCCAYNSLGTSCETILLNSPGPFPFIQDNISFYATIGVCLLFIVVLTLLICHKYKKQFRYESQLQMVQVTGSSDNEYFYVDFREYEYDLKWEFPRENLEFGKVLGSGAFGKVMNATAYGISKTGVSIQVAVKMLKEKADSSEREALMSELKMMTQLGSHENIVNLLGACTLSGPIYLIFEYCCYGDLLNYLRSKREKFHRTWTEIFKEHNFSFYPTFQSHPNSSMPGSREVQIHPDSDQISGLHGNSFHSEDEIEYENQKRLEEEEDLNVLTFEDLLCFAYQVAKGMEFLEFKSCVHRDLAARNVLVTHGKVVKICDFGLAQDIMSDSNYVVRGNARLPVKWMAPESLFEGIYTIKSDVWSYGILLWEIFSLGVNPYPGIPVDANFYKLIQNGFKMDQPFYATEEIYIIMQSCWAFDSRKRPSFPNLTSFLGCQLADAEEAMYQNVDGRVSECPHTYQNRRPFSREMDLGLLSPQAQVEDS
Summary of the method: as §1

kinases [5] = biological target: T5, kinases (Homo sapiens, UniProt P36888, D835H)
T5 construct: purchased Eurofins/DiscoveRx; host or cells: E. coli BL21-derived host (T7 phage display) for most kinases; HEK-293 for the rest
T5 sequence (P36888 27-993 D835H): T4 sequence (P36888 27-993 R834Q) with Q808R, D809H
Summary of the method: as §1

kinases [6] = biological target: T6, kinases (Homo sapiens, UniProt P00533, T790M)
T6 construct: purchased Eurofins/DiscoveRx; host or cells: E. coli BL21-derived host (T7 phage display) for most kinases; HEK-293 for the rest
Summary of the method: as §1

[7] = target ABL1(F317L)-nonphosphorylated
[8] = target ABL1(F317L)-phosphorylated

T1 sequence (P00519 whole entry F317L): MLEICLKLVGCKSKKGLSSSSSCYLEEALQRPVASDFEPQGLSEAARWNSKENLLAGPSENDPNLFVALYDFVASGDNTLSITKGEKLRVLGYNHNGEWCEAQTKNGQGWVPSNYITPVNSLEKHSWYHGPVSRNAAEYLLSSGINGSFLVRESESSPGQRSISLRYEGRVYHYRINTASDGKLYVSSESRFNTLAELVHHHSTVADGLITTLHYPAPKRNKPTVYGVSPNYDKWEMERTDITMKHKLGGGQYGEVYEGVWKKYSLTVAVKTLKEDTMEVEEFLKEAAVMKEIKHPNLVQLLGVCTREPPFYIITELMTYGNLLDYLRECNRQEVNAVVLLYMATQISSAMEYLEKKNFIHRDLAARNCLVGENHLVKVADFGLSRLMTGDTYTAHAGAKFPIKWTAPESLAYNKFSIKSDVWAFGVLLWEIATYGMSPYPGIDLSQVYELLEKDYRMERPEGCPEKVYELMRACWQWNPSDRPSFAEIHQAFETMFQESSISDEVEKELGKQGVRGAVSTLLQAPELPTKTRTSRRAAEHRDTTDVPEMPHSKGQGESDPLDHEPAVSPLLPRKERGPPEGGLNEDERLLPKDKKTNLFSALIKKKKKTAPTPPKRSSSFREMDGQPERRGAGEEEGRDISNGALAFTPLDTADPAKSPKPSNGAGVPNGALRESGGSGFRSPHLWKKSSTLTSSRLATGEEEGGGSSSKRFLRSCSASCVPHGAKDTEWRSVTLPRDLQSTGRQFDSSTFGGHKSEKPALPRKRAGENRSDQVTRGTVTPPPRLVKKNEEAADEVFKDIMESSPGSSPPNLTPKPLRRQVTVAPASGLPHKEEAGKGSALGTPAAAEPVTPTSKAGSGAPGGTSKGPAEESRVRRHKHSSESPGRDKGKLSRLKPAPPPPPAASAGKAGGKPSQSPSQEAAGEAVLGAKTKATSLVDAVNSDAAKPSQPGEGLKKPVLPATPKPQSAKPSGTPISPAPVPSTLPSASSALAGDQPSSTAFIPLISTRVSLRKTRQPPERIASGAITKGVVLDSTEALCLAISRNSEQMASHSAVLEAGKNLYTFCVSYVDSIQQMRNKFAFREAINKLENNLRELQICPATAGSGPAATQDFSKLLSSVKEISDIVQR

In the case of `CN1CCOCCOc2cc3c(cc2Cl)NC(=O)/C3=C\c2[nH]ccc2C1=O` [Ex. 143, [16a(17)Z]-19-chloro-2,5-dimethyl-6,7,9,10-tetrahydro-1H-12,14-(ethanediylidene)dipyrrolo[3,2-i:3′,4′-l][1,4,7]oxathiazacyclopentadecine-4,16(5H,15H)-dione], the “% Ctrl, ABL1(F317L)-nonphosphorylated” value (kinases [1]; [7]) was 17 % Ctrl, the “% Ctrl, ABL1(F317L)-phosphorylated” value (kinases [1]; [8]) was 17 % Ctrl and the “% Ctrl, RET(V804L)” value (kinases [2]; target RET(V804L)) was 3.5 % Ctrl. For the same compound, the “% Ctrl, FLT1” value (kinases [3]; target FLT1) was 11 % Ctrl, the “% Ctrl, FLT3(R834Q)” value (kinases [4]; target FLT3(R834Q)) was 33 % Ctrl and the “% Ctrl, FLT3(D835H)” value (kinases [5]; target FLT3(D835H)) was 0.8 % Ctrl. For the same compound, the “% Ctrl, EGFR(T790M)” value (kinases [6]; target EGFR(T790M)) was 100 % Ctrl.
With `Cc1cc2c([nH]1)/C=C1\C(=O)Nc3ccc(nc31)-c1ccccc1OCCCNC2=O` [Ex.22, [3a(4)Z]-6-methyl-9,10,11,12-tetrahydro-1,18-(ethanediylidene)dipyrrolo[3,2-g:3′,4′-j][1,5,12]benzoxadiazacyclopentadecine-3,8(2H,5H)-dione] the “% Ctrl, ABL1(F317L)-nonphosphorylated” value (kinases [1]; ABL1(F317L)-nonphosphorylated) was 82 % Ctrl, the “% Ctrl, ABL1(F317L)-phosphorylated” value (kinases [1]; ABL1(F317L)-phosphorylated) was 100 % Ctrl and the “% Ctrl, RET(V804L)” value (kinases [2]; RET(V804L)) was 98 % Ctrl. The “% Ctrl, FLT1” value (kinases [3]; FLT1) was 100 % Ctrl, the “% Ctrl, FLT3(R834Q)” value (kinases [4]; FLT3(R834Q)) was 97 % Ctrl and the “% Ctrl, FLT3(D835H)” value (kinases [5]; FLT3(D835H)) was 89 % Ctrl. The “% Ctrl, EGFR(T790M)” value (kinases [6]; EGFR(T790M)) was 57 % Ctrl.
In the case of `Cc1cc2c([nH]1)/C=C1\C(=O)Nc3cc(Cl)c(cc31)OCCO[C@@H](C(=O)N(C)C)CN(C)C2=O` [Ex. 137, [7R,16a(17)Z]-19-chloro-N,N,2,5-tetramethyl-4,16-dioxo-4,5,6,7,9,10,15,16-octahydro-1H-12,14-(ethanediylidene)dipyrrolo[3,2-i:3′,4′-l][1,4,7]dioxazacyclopentadecine-7-carboxamide], the “% Ctrl, ABL1(F317L)-nonphosphorylated” value (kinases [1]; ABL1(F317L)-nonphosphorylated) was 76 % Ctrl, the “% Ctrl, ABL1(F317L)-phosphorylated” value (kinases [1]; ABL1(F317L)-phosphorylated) was 67 % Ctrl and the “% Ctrl, RET(V804L)” value (kinases [2]; RET(V804L)) was 37 % Ctrl. The “% Ctrl, FLT1” value (kinases [3]; FLT1) was 88 % Ctrl, the “% Ctrl, FLT3(R834Q)” value (kinases [4]; FLT3(R834Q)) was 65 % Ctrl and the “% Ctrl, FLT3(D835H)” value (kinases [5]; FLT3(D835H)) was 53 % Ctrl. The “% Ctrl, EGFR(T790M)” value (kinases [6]; EGFR(T790M)) was 94 % Ctrl.
With `Cc1cc2c([nH]1)/C=C1\C(=O)Nc3ccc(cc31)OCCOCCN(C)C2=O` [Ex.91, [16a(17)Z]-2,5-dimethyl-6,7,9,10-tetrahydro-1H-12,14-(ethanediylidene)dipyrrolo[3,2-i:3′,4′-l][1,4,7]dioxazacyclopentadecine-4,16(5H,15H)-dione] the “% Ctrl, ABL1(F317L)-nonphosphorylated” value (kinases [1]; ABL1(F317L)-nonphosphorylated) was 12 % Ctrl, the “% Ctrl, ABL1(F317L)-phosphorylated” value (kinases [1]; ABL1(F317L)-phosphorylated) was 20 % Ctrl and the “% Ctrl, RET(V804L)” value (kinases [2]; RET(V804L)) was 3.8 % Ctrl. The “% Ctrl, FLT1” value (kinases [3]; FLT1) was 83 % Ctrl, the “% Ctrl, FLT3(R834Q)” value (kinases [4]; FLT3(R834Q)) was 29 % Ctrl and the “% Ctrl, FLT3(D835H)” value (kinases [5]; FLT3(D835H)) was 1.2 % Ctrl. For the same compound, the “% Ctrl, EGFR(T790M)” value (kinases [6]; EGFR(T790M)) was 82 % Ctrl.
`Cc1cc2c([nH]1)/C=C1\C(=O)Nc3cc(Cl)c(cc31)OCCO[C@@H](C(=O)NC1CCNCC1)CN(C)C2=O` [Ex. 134, [7R,16a(17)Z]-19-chloro-2,5-dimethyl-4,16-dioxo-N-(piperidin-4-yl)-4,5,6,7,9,10,15,16-octahydro-1H-12,14-(ethaneidylidene)dipyrrolo[3,2-i:3′,4′-l][1,4,7]dioxazacyclopentadecine-7-carboxamide] was tested, and the “% Ctrl, ABL1(F317L)-nonphosphorylated” value (kinases [1]; ABL1(F317L)-nonphosphorylated) was 62 % Ctrl, the “% Ctrl, ABL1(F317L)-phosphorylated” value (kinases [1]; ABL1(F317L)-phosphorylated) was 57 % Ctrl and the “% Ctrl, RET(V804L)” value (kinases [2]; RET(V804L)) was 55 % Ctrl. For the same compound, the “% Ctrl, FLT1” value (kinases [3]; FLT1) was 97 % Ctrl, the “% Ctrl, FLT3(R834Q)” value (kinases [4]; FLT3(R834Q)) was 59 % Ctrl and the “% Ctrl, FLT3(D835H)” value (kinases [5]; FLT3(D835H)) was 35 % Ctrl. For the same compound, the “% Ctrl, EGFR(T790M)” value (kinases [6]; EGFR(T790M)) was 92 % Ctrl.
With `CN1CCSCCOc2cc3c(cc2Cl)NC(=O)/C3=C\c2[nH]ccc2C1=O` [Ex. 153] the “% Ctrl, ABL1(F317L)-nonphosphorylated” value (kinases [1]; [7]) was 4.3 % Ctrl, the “% Ctrl, ABL1(F317L)-phosphorylated” value (kinases [1]; [8]) was 18 % Ctrl and the “% Ctrl, RET(V804L)” value (kinases [2]; target RET(V804L)) was 6.1 % Ctrl. For the same compound, the “% Ctrl, FLT1” value (kinases [3]; target FLT1) was 3.5 % Ctrl, the “% Ctrl, FLT3(R834Q)” value (kinases [4]; target FLT3(R834Q)) was 19 % Ctrl and the “% Ctrl, FLT3(D835H)” value (kinases [5]; target FLT3(D835H)) was 0.3 % Ctrl. For the same compound, the “% Ctrl, EGFR(T790M)” value (kinases [6]; target EGFR(T790M)) was 83 % Ctrl.

Reference: patent US20230257396A1, “MACROCYCLES AND THEIR USE” (BLOSSOMHILL THERAPEUTICS, INC., priority 2020, published 2023)
